Columns and labels:
[1] = biological target: T1, Ikaros (Homo sapiens, UniProt Q13422); test: Helios Cellular Degradation Assay, Ikaros readout (flow cytometry, Ikaros-Alexa488 antibody staining, 72 h); type: cell-based; conditions: Jurkat cells, 72 h incubation, flow cytometry; for Dmax: Jurkat, read-out: Ikaros Dmax
T1 construct: fluorescently labelled antibodies against Helios and Ikaros; endogenous in cells; host or cells: Jurkat cells
Method: (§1) Helios Cellular Degradation Assay
(§2) Jurkat cells were plated at 80,000 cells/well in 40 μL RPMI+10% FBS in a 384 well cell culture plate prior to using acoustic dispensing technology for adding compound of interest. Cell cultures were incubated for 72 h at 37° C. and 5% CO2. In order to facilitate analysis, cell cultures were spun down at 200 rpm for 5 min and the supernatant was discarded. After shaking the plate to dislodge the cell pellet, cells were resuspended in 50 μL of Fixation Buffer (eBioScience FoxP3 buffer set 0000) for 60 min at room temperature. After centrifuging and discarding the supernatant, cells were permeabilized with 50 μL of Permeabilization buffer (eBioScience FoxP3 buffer set 00-5523-00) for 10 min at room temperature. Following permeabilization, cells were spun down and the supernatant was replaced with 20 μL fluorescently labelled antibodies against Helios and Ikaros or corresponding Isotype controls in 1× Permeabilization buffer (Ikaros-Alexa488 [Biolegend, Cat #368408, 1:50], Helios-PE [CST, Cat #29360, 1:50]) and staining reactions were incubated for 1 h at room temperature; protected from light. Subsequently, 30 μL of 1× Permeabilization buffer was added prior to centrifuging the cells and discarding the supernatant. Stained cells were resuspended in 25 μL of flow cytometry staining buffer (PBS+0.2% BSA) and analyzed using an Intellicyt Ique Plus flow cytometer.
as §2, with “00-5523-00)” for “0000)”

[2] = biological target: T2, Helios (Homo sapiens, UniProt Q96SW2+Q9UKS7); test: Helios Cellular Degradation Assay (flow cytometry, Helios-PE antibody staining, 72 h); type: cell-based; conditions: Jurkat cells, 72 h incubation, flow cytometry; for Dmax: Jurkat, read-out: Helios Dmax
T2 construct: fluorescently labelled antibodies against Helios and Ikaros; endogenous in cells; host or cells: Jurkat cells
T2 sequence (Q9UKS7 whole entry): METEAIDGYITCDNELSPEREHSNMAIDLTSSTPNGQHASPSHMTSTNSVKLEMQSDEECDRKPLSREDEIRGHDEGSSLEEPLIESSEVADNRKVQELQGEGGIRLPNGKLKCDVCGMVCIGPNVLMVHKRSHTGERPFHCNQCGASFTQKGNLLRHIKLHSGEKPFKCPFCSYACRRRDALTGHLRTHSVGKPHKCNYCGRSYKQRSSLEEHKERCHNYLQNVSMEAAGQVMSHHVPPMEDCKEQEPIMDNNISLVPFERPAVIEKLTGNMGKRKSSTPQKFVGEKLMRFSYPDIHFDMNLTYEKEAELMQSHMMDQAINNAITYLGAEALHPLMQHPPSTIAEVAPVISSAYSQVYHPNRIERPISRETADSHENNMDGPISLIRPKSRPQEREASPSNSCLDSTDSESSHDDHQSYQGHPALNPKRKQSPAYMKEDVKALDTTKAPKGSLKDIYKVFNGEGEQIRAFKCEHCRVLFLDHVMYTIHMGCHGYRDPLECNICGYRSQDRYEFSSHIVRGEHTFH
T2 sequence (Q96SW2 whole entry): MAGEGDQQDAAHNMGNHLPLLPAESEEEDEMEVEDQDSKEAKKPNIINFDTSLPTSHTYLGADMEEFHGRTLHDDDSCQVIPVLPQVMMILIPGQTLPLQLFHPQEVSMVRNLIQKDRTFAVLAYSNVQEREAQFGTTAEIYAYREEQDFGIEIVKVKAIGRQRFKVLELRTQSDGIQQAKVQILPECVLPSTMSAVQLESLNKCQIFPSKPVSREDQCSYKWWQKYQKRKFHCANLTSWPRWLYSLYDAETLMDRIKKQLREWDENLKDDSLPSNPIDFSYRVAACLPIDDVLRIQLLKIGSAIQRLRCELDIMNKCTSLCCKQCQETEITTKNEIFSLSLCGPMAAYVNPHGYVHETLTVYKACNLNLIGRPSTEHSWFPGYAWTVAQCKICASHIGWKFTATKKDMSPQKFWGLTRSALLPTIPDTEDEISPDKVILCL
T2 sequence (Q16531 whole entry partner): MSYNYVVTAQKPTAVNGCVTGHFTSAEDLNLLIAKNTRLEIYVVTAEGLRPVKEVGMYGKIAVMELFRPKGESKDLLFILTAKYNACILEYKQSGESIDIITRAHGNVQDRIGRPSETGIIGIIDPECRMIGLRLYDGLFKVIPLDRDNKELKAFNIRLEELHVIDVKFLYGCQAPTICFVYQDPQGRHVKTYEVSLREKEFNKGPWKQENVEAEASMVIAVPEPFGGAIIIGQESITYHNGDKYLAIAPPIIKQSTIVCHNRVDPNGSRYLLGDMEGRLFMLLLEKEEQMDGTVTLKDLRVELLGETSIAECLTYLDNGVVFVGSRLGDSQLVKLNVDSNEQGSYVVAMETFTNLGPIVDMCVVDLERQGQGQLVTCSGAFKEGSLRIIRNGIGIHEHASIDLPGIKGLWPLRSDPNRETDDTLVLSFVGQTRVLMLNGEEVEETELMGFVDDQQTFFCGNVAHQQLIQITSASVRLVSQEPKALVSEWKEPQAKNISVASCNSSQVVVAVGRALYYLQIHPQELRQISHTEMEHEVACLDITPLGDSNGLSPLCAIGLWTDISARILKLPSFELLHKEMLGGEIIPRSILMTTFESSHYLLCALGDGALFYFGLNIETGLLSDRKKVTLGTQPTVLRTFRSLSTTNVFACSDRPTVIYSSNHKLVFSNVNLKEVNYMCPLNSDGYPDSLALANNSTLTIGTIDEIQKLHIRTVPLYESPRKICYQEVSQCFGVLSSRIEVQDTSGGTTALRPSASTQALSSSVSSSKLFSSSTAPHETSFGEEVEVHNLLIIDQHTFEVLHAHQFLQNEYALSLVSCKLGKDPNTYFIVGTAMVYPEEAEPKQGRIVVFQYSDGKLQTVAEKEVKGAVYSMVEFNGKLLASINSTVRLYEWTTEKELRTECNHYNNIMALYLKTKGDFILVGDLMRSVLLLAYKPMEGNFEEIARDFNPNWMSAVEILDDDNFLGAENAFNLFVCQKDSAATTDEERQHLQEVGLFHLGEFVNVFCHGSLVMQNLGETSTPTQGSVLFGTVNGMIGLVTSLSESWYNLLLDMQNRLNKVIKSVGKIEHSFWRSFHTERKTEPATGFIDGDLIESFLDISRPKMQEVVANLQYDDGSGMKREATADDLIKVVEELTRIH
Method: as §1, §2
as §2, with “00-5523-00)” for “0000)”

T1 sequence (Q96SW2 whole entry partner): as the sequence (Q96SW2 whole entry) above
T1 sequence (Q16531 whole entry partner): as the sequence (Q16531 whole entry partner) above
T1 sequence (Q13422 whole entry): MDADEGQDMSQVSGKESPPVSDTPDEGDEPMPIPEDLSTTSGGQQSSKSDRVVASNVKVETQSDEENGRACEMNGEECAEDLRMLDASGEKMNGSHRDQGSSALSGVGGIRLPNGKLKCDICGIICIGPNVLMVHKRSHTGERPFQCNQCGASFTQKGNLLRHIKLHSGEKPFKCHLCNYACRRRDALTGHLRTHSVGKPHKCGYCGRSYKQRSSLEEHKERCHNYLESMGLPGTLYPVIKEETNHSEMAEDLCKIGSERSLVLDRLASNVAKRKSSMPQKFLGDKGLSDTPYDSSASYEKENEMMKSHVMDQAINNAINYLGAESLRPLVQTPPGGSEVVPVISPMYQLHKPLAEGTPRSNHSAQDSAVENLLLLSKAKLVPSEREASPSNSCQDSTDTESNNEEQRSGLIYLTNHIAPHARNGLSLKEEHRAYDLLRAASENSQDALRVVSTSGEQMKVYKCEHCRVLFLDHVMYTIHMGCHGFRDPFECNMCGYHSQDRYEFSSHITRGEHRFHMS

| DC50 [1] | Dmax [1] | DC50 [2] | Dmax [2] | Ikaros Dmax [1] | Helios Dmax [2] | Structure (SMILES) |
| --- | --- | --- | --- | --- | --- | --- |
| > 10000 nM | 12% | > 10000 nM | 36% | – | – | CC(C)N1CCN(Cc2ccnc(-c3ccc4c(c3)CN(C3CCC(=O)NC3=O)C4=O)c2)CC1 (centres unmarked) [Example 44, 3-(5-(4-((4-isopropylpiperazin-1-yl)methyl)pyridin-2-yl)-1-oxoisoindolin-2-yl)piperidine-2,6-dione] |
| > 10000 nM | 6% | > 10000 nM | 43% | – | – | CN(C)[C@@H]1CCN(Cc2ccnc(-c3ccc4c(c3)CN(C3CCC(=O)NC3=O)C4=O)c2)C1 (stereo partly drawn) [Example 45, 3-(5-(4-(((R)-3-(dimethylamino)pyrrolidin-1-yl)methyl)pyridin-2-yl)-1-oxoisoindolin-2-yl)piperidine-2,6-dione] |
| > 10000 nM | 6% | 18 nM | 83% | – | – | CC1CCN1Cc1ccnc(-c2ccc3c(c2)CN(C2CCC(=O)NC2=O)C3=O)c1 (centres unmarked) [Example 46, 3-(5-(4-((2-methylazetidin-1-yl)methyl)pyridin-2-yl)-1-oxoisoindolin-2-yl)piperidine-2,6-dione] |
| > 10000 nM | 8% | 17 nM | 79% | – | – | CC1CN(Cc2ccnc(-c3ccc4c(c3)CN(C3CCC(=O)NC3=O)C4=O)c2)C1 (centres unmarked) [Example 47, 3-(5-(4-((3-methylazetidin-1-yl)methyl)pyridin-2-yl)-1-oxoisoindolin-2-yl)piperidine-2,6-dione] |
| > 10000 nM | 6% | 32 nM | 72% | – | – | O=C1CCC(N2Cc3cc(-c4cc(CN5CCCCCC5)ccn4)ccc3C2=O)C(=O)N1 (centres unmarked) [Example 48, 3-(5-(4-(azepan-1-ylmethyl)pyridin-2-yl)-1-oxoisoindolin-2-yl)piperidine-2,6-dione] |
| > 10000 nM | – | > 10000 nM | – | 3% | 29% | CN1CCC(N(C)Cc2ccnc(-c3ccc4c(c3)CN(C3CCC(=O)NC3=O)C4=O)c2)C1 (centres unmarked) [Example 49, 3-(5-(4-((methyl(1-methylpyrrolidin-3-yl)amino)methyl)pyridin-2-yl)-1-oxoisoindolin-2-yl)piperidine-2,6-dione] |
| > 10000 nM | 12% | 22 nM | 78% | – | – | CCN(CC)Cc1ccnc(-c2ccc3c(c2)CN(C2CCC(=O)NC2=O)C3=O)c1 (centres unmarked) [Example 50, 3-(5-(4-((diethylamino)methyl)pyridin-2-yl)-1-oxoisoindolin-2-yl)piperidine-2,6-dione] |
| > 10000 nM | 11% | 64 nM | 70% | – | – | CC1(C)CN(Cc2ccnc(-c3ccc4c(c3)CN(C3CCC(=O)NC3=O)C4=O)c2)C1 (centres unmarked) [Example 51, 3-(5-(4-((3,3-dimethylazetidin-1-yl)methyl)pyridin-2-yl)-1-oxoisoindolin-2-yl)piperidine-2,6-dione] |
| > 10000 nM | 10% | 300 nM | 67% | – | – | CC1(C)CCN1Cc1ccnc(-c2ccc3c(c2)CN(C2CCC(=O)NC2=O)C3=O)c1 (centres unmarked) [Example 52, 3-(5-(4-((2,2-dimethylazetidin-1-yl)methyl)pyridin-2-yl)-1-oxoisoindolin-2-yl)piperidine-2,6-dione] |
| > 10000 nM | 21% | 231 nM | 77% | – | – | CC1CCCC(C)N1Cc1ccnc(-c2ccc3c(c2)CN(C2CCC(=O)NC2=O)C3=O)c1 (centres unmarked) [Example 53, 3-(5-(4-((2,6-dimethylpiperidin-1-yl)methyl)pyridin-2-yl)-1-oxoisoindolin-2-yl)piperidine-2,6-dione] |
| > 10000 nM | 12% | 16 nM | 83% | – | – | O=C1CCC(N2Cc3cc(-c4cc(CNCC5CCCCC5)ccn4)ccc3C2=O)C(=O)N1 (centres unmarked) [Example 54, 3-(5-(4-(((cyclohexylmethyl)amino)methyl)pyridin-2-yl)-1-oxoisoindolin-2-yl)piperidine-2,6-dione] |

— US11548870B2, “Compounds useful as inhibitors of helios protein” (Bristol-Myers Squibb Company, priority 2019, dated 2023)
